The subject of experiment [1] is Staphylococcus aureus (S. aureus) 11540 strain. Put plainly: Standard microdilution MIC assay, S. aureus. The class given is cell-based. In a few lines:
(§1)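 MICs obtained by CLSI-standard microdilution, quality-controlled with reference strains in parallel. Values reported as + or − relative to a 16 micrograms/mL cutoff.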
A general note: Broth dilution looks for growth in wells or tubes with falling amounts of substance.

The subject of experiment [2] is Escherichia coli strain ATCC25922. Put plainly: Standard microdilution MIC assay, E. coli. The class given is cell-based. The essentials:
as §1

43 compounds from patent US11999739B2, “Antimicrobials methods of making and using the same” (BIOVERSYS AG, priority 2016, dated 2024) can be followed below.

What is called MIC is the least concentration at which growth counts as inhibited. Consider `CC(=N)NCCCNC1(c2ccc(-n3cc4cc(-c5cc(CCC[C@H](C)N)cc(Cl)c5F)[nH]c4nc3=O)cc2)CC1` [Compound 145], for which the MIC in experiment [1] and in experiment [2] was at most 16 mg/L each time.
On to `C=CCC(=N)NCCC(C=C)NCc1ccc(-n2cc3cc(-c4cc(CCC[C@H](C)N)cc(Cl)c4F)[nH]c3nc2=O)cc1` (some centres unmarked) [Compound 33], for which the MIC in experiment [1] and in experiment [2] was at most 16 mg/L each time.
With `CC(=N)NCC[C@@H]1CCC[C@@H](c2ccc(-n3cc4cc(-c5cc(CCC[C@@H](N)C6CC6)cc(OC(F)(F)F)c5F)[nH]c4nc3=O)cc2F)N1` [Compound 208], the MIC in experiment [1] and in experiment [2] was at most 16 mg/L in each case.
As to `COC[C@@H](CCNC(C)=N)NCc1ccc(-n2cc3cc(-c4cc(CCC[C@@H](N)CF)cc(Cl)c4F)[nH]c3nc2=O)cc1` [Compound 188], the MIC in experiment [1] and in experiment [2] was at most 16 mg/L throughout.
For the compound `CC(=N)NCC[C@@H]1CCC[C@@H](c2ccc(-n3cc4cc(-c5cc(CCC[C@@H](N)C6CC6)cc(C(F)(F)F)c5)[nH]c4nc3=O)cc2)N1` [Compound 206], the MIC in experiment [1] and in experiment [2] was at most 16 mg/L throughout.
Regarding `C=C[C@@H](CCNC(=N)CF)NCc1ccc(-n2cc3cc(-c4cc(CCC[C@@H](N)C(F)(F)F)cc(Cl)c4F)[nH]c3nc2=O)cc1` [Compound 43], the minimum inhibitory concentration (MIC) in experiment [1] and in experiment [2] was at most 16 mg/L each time.
`CC(=N)NCC[C@H](CO)N[C@@H](C)c1ccc(-n2cc3cc(-c4cc(CCC[C@H](C)N)cc(Cl)c4F)[nH]c3nc2=O)cc1F` [Compound 177]: the MIC in experiment [1] and in experiment [2] was at most 16 mg/L in each case.
For `CC(=N)NCC[C@H](CO)NCc1ccc(-n2cc3cc(-c4cc(CCC[C@@H](N)CO)cc(Cl)c4F)[nH]c3nc2=O)cc1` [Compound 35], the MIC in experiment [1] and in experiment [2] was at most 16 mg/L in each case.
As for `C=C[C@@H](CCNC(C)=N)NCc1ccc(-n2cc3cc(-c4cc(CCC[C@@H](N)COC)cc(Cl)c4F)[nH]c3nc2=O)cc1` [Compound 187], the MIC in experiment [1] and in experiment [2] was at most 16 mg/L in each case.
Regarding `CC(=N)NCC[C@@H]1CCC[C@@H](c2ccc(-n3cc4cc(-c5cc(CCC[C@@H](N)C6CC6)cc(C(F)(F)F)c5)[nH]c4nc3=O)cc2)N1CCCF` [Compound 330], the MIC in experiment [1] and in experiment [2] was at most 16 mg/L throughout.
As to `C=C[C@@H](N)CCCc1cc(Cl)c(F)c(-c2cc3cn(-c4ccc(CN[C@@H](C=C)CCNC(C)=N)cc4)c(=O)nc3[nH]2)c1` [Compound 30], the MIC in experiment [1] and in experiment [2] was at most 16 mg/L throughout.
In the case of `C=CC(CCNC(C)=N)NCc1ccc(-n2cc3cc(-c4cc(CCC(C)(C)CN)cc(Cl)c4F)[nH]c3nc2=O)cc1` (centres unmarked) [Compound 26], the minimum inhibitory concentration (MIC) in experiment [1] and in experiment [2] was at most 16 mg/L each time.
As for `COC[C@H](N)CCCc1cc(OC(F)(F)F)c(F)c(-c2cc3cn(-c4ccc([C@@H]5CCC[C@@H](CCNC(C)=N)N5)c(OC)c4)c(=O)nc3[nH]2)c1` [Compound 197], the MIC in experiment [1] and in experiment [2] was at most 16 mg/L in each case.
As to `CC(=N)NCC[C@@H]1CCC[C@@H](c2ccc(-n3cc4cc(-c5cc(CCC[C@@H](N)C6CC6)cc(Cl)c5F)[nH]c4nc3=O)cc2F)N1` [Compound 167], the MIC in experiment [1] and in experiment [2] was at most 16 mg/L each time.
`C=C[C@@H](N)CCCc1cc(Cl)c(F)c(-c2cc3cn(-c4ccc([C@H](C)NCCCNC(C)=N)c(F)c4)c(=O)nc3[nH]2)c1` [Compound 92]: the MIC in experiment [1] and in experiment [2] was at most 16 mg/L throughout.
On to `CC(=N)NCC[C@@H]1CNC[C@@H](c2ccc(-n3cc4cc(-c5cc(CCC[C@H](C)N)cc(Cl)c5F)[nH]c4nc3=O)cc2)O1` [Compound 32], for which the MIC in experiment [1] and in experiment [2] was at most 16 mg/L in each case.
Regarding `CC(=N)NCC[C@@H]1CSC[C@@H](c2ccc(-n3cc4cc(-c5cc(CCC[C@H](C)N)cc(Cl)c5F)[nH]c4nc3=O)cc2)N1` [Compound 271], the MIC in experiment [1] and in experiment [2] was at most 16 mg/L throughout.
As for `C=C[C@@H](N)CCCc1cc(Cl)c(F)c(-c2cc3cn(-c4ccc(CN[C@H](C=C)CCNC(=N)CF)cc4)c(=O)nc3[nH]2)c1` [Compound 38], the MIC in experiment [1] and in experiment [2] was at most 16 mg/L each time.
Take `C=C[C@@H](CCNC(=N)CF)NCc1ccc(-n2cc3cc(-c4cc(CCC[C@@H](N)CO)cc(Cl)c4F)[nH]c3nc2=O)cc1` [Compound 2]: the minimum inhibitory concentration (MIC) in experiment [1] and in experiment [2] was at most 16 mg/L each time.
Take `CC(=N)NCCCN[C@@H](C)c1ccc(-n2cc3cc(-c4cc(CCC[C@@H](N)CF)cc(Cl)c4F)[nH]c3nc2=O)cc1F` [Compound 107]: the MIC in experiment [1] and in experiment [2] was at most 16 mg/L in each case.
As for `C=C[C@H](N)CCCc1cc(Cl)c(F)c(-c2cc3cn(-c4ccc([C@@H]5CCC[C@@H](CCNC(C)=N)N5CCCF)c(SC)c4)c(=O)nc3[nH]2)c1` [Compound 344], the MIC in experiment [1] and in experiment [2] was at most 16 mg/L in each case.
In the case of `CSC[C@H](N)CCCc1cc(Cl)c(F)c(-c2cc3cn(-c4ccc([C@@H]5CCC[C@@H](CCNC(C)=N)N5)cc4)c(=O)nc3[nH]2)c1` [Compound 276], the MIC in experiment [1] and in experiment [2] was at most 16 mg/L in each case.
In the case of `C=C[C@@H](N)CCCc1cc(Cl)c(F)c(-c2cc3cn(-c4ccc(CN[C@@H](C=C)CCNC(=N)CF)cc4)c(=O)nc3[nH]2)c1` [Compound 37], the MIC in experiment [1] and in experiment [2] was at most 16 mg/L each time.
In the case of `CC(=N)NCC[C@@H]1COC[C@@H](c2ccc(-n3cc4cc(-c5cc(CCC[C@@H](N)C(F)(F)F)cc(Cl)c5F)[nH]c4nc3=O)cc2)N1` [Compound 66], the MIC in experiment [1] and in experiment [2] was over 16 mg/L each time.
As for `CC(=N)NCC[C@H](CNc1ncc[nH]1)N[C@@H](C)c1ccc(-n2cc3cc(-c4cc(CCC[C@H](C)N)cc(Cl)c4F)[nH]c3nc2=O)cc1` [Compound 165], the MIC in experiment [1] and in experiment [2] was at most 16 mg/L each time.
Take `CC(=N)NCC[C@@H]1COC[C@@H](c2ccc(-n3cc4cc(-c5cc(CCCC(C)(C)N)cc(Cl)c5F)[nH]c4nc3=O)cc2)N1` [Compound 68]: the MIC in experiment [1] and in experiment [2] was at most 16 mg/L each time.
Turning to `CSC[C@@H](CCNC(C)=N)NCc1ccc(-n2cc3cc(-c4cc(CCC[C@H](C)N)cc(Cl)c4F)[nH]c3nc2=O)cc1` [Compound 95], the MIC in experiment [1] and in experiment [2] was at most 16 mg/L throughout.
With `CSc1cc(-n2cc3cc(-c4cc(CCC[C@@H](N)CF)cc(Cl)c4F)[nH]c3nc2=O)ccc1[C@@H]1CCC[C@@H](CCNC(C)=N)N1` [Compound 126], the MIC in experiment [1] and in experiment [2] was at most 16 mg/L each time.
In the case of `C=C[C@H](NCCCNC(C)=N)c1ccc(-n2cc3cc(-c4cc(CCC[C@@H](N)CF)cc(Cl)c4F)[nH]c3nc2=O)cc1` [Compound 179], the MIC in experiment [1] and in experiment [2] was at most 16 mg/L in each case.
As for `C=C[C@@H](N)CCCc1cc(Cl)c(F)c(-c2cc3cn(-c4ccc([C@@H]5CCC[C@@H](C[C@@H](C)NC(C)=N)N5)cc4)c(=O)nc3[nH]2)c1` [Compound 340], the MIC in experiment [1] and in experiment [2] was at most 16 mg/L each time.
For `CC(=N)NCC[C@@H]1CCC[C@@H](c2ccc(-n3cc4cc(-c5cc(CCC[C@H](C)N)cc(Cl)c5F)[nH]c4nc3=O)cc2)N1CC(C)C` [Compound 369], the MIC in experiment [1] and in experiment [2] was at most 16 mg/L throughout.
`COC(=O)c1ccc(-c2cc3cn(-c4ccc([C@@H]5CCC[C@@H](CCNC(C)=N)N5)cc4)c(=O)nc3[nH]2)cc1CCC[C@H](C)N` [Compound 291]: the MIC in experiment [1] and in experiment [2] was at most 16 mg/L throughout.
With `CC(=N)NCC[C@@H]1CCC[C@@H](c2ccc(-n3cc4cc(-c5cc(CCC[C@H](C)N)cc(Cl)c5F)[nH]c4nc3=O)cn2)N1` [Compound 192], the minimal inhibitory concentration (MIC) in experiment [1] and in experiment [2] was at most 16 mg/L throughout.
Take `N=C(CF)NCC[C@H](CO)NCc1ccc(-n2cc3cc(-c4cc(CCC[C@@H](N)C5CC5)cc(Cl)c4F)[nH]c3nc2=O)cc1` [Compound 85]: the MIC in experiment [1] and in experiment [2] was at most 16 mg/L each time.
With `CC(C)(CN)CCc1cc(Cl)c(F)c(-c2cc3cn(-c4ccc(CNCCCNC(=N)CF)c(F)c4)c(=O)nc3[nH]2)c1` [Compound 74], the MIC in experiment [1] and in experiment [2] was at most 16 mg/L throughout.
For the compound `CC(=N)NCC[C@@H]1CCC[C@@H](c2ccc(-n3cc4cc(-c5cc(CCC[C@@H](N)C6CC6)cc(Cl)c5F)[nH]c4nc3=O)cc2C)N1` [Compound 239], the MIC in experiment [1] and in experiment [2] was at most 16 mg/L throughout.
In the case of `COCCC(=N)NCC[C@@H]1CCC[C@@H](c2ccc(-n3cc4cc(-c5cc(CCC[C@H](C)N)cc(Cl)c5F)[nH]c4nc3=O)cc2)N1` [Compound 348], the MIC in experiment [1] and in experiment [2] was at most 16 mg/L in each case.
Regarding `CSc1cc(-n2cc3cc(-c4cc(CCC[C@@H](N)C5CC5)cc(Cl)c4F)[nH]c3nc2=O)cc(F)c1[C@@H]1CCC[C@@H](CCNC(C)=N)N1CCCF` [Compound 338], the MIC in experiment [1] and in experiment [2] was at most 16 mg/L in each case.
Take `CC(=N)NCC[C@H](CO)NCc1ccc(-n2cc3cc(-c4cc(CCC[C@@H](N)C5CC5)cc(Cl)c4F)[nH]c3nc2=O)cc1` [Compound 79]: the minimum inhibitory concentration (MIC) in experiment [1] and in experiment [2] was at most 16 mg/L throughout.
As for `C=C[C@@H](CCNC(C)=N)N[C@@H](C)c1ccc(-n2cc3cc(-c4cc(CCC[C@@H](N)CF)cc(Cl)c4F)[nH]c3nc2=O)cc1` [Compound 150], the MIC in experiment [1] and in experiment [2] was at most 16 mg/L in each case.
In the case of `CC(=N)NCCCN[C@@H](C)c1ccc(-n2cc3cc(-c4cc(CCC[C@@H](N)CO)cc(Cl)c4F)[nH]c3nc2=O)cc1F` [Compound 113], the MIC in experiment [1] and in experiment [2] was at most 16 mg/L each time.
For `C=C[C@@H](CCNC(=N)CCOCC)NCc1ccc(-n2cc3cc(-c4cc(CCC[C@H](C)N)cc(Cl)c4F)[nH]c3nc2=O)cc1` [Compound 52], the MIC in experiment [1] and in experiment [2] was at most 16 mg/L throughout.
`C[C@H](N)CCCc1cc(Cl)c(F)c(-c2cc3cn(-c4ccc([C@@H]5CNC[C@@H](CCNC(=N)CF)N5)cc4)c(=O)nc3[nH]2)c1` [Compound 51]: the MIC in experiment [1] and in experiment [2] was at most 16 mg/L each time.
